In patent US6319910A, “Method for inhibiting cyclooxygenase-2 and tumor necrosis factor alpha” (Hospital for Joint Diseases, priority 1998, dated 2001):

Assays:
COX-2 [1] = target: T1, COX-2 (Mus musculus, UniProt Q05769); experiment: COX-2 specific activity in cell-free extracts of LPS-stimulated RAW 264.7 cells (PGE2 by RIA); type: biochemical, murine
T1 construct: using total unfractionated cell extracts; endogenous in cells; host or cells: RAW 264.7 cells, LPS-induced; cell-free extract
T1 sequence (Q05769 18-604): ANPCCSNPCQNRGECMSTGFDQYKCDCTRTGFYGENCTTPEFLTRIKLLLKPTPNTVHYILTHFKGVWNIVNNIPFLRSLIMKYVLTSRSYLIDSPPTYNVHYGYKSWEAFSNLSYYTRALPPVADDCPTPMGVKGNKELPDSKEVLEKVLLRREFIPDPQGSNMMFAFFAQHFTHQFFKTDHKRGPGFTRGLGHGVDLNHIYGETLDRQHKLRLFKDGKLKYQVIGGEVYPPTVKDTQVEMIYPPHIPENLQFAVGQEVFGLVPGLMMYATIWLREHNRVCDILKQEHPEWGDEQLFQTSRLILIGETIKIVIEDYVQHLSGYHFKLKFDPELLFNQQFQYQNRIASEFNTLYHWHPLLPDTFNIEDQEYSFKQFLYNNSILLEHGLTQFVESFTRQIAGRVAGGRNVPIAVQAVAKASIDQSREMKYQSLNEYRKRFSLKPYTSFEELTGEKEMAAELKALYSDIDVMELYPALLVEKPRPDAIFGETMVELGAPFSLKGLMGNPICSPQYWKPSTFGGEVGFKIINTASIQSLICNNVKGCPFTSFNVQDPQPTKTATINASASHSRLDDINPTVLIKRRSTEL
Protocol: Raw 264.7 cells were stimulated with LPS and cell-free extracts were prepared as follows. RAW 264.7 cells were induced with LPS (100 ng/ml) in the presence or absence of tetracyclines or hydrocortisone for 14-20 hours. Following induction, the cells were pelleted at 4° C. and resuspended in Tris buffer: 10 mM, pH 7.4 containing 10 μg/ml each of chymostatin, antipain, leupeptin and pepstatin, 1 mM DDT and 1 mM PMSF. Cells were lysed in a Polytron PA 1200 homogenizer (Kinematica AG, Switzerland) with the cocktail of protease inhibitors after 3 cycles of rapid freeze-thawing. The lysate was centrifuged at 18,000 at 4° C. in an eppendorf centrifuge, and the resulting supernatant was used as cell-free extracts. The protein was measured by BCA assay reagent (Pierce, Rockford, Ill.) using BSA as standard. […] The specific enzyme activity was defined as ng of PGE2 released/mg protein/37° C. for 20 minutes.
RAW 264.7 cells were stimulated with 1 μg/ml of LPS for 16 hours and cell-free extracts were prepared as described above. The extracts were incubated with different modulators for 20 minutes at 37° C. before adding the substrate to initiate the enzyme reaction, which was terminated after 30 minutes by heat inactivation. The data represent one of the two experiments, the PGE2 analysis from each sample was done in triplicates n=3. The p value is a comparison between control and experimentals.

RAW 264.7 cells = experiment: Nitrite (NO) production/accumulation in LPS-stimulated RAW 264.7 cells; type: cell-based, murine; details: LPS 100 ng/ml; for Nitrite / inhibition at 10 µg/mL: compound 10 μg/ml; for Effect on NO production: words; for inhibition at 10 µg/mL: Mus musculus, RAW264.7, 16 h
Protocol: Murine macrophages (RAW 263.7 cells) which were grown in Dulbecco's modified eagle medium (DMEM) containing 10% fetal bovine serum, 2 mM glutamine, 50 U/ml penicillin and 50 μg/ml streptomycin, were stimulated with 100 ng/ml LPS to induce both NOS and COX-2 at 16 hr. […] The data presented in FIG. 1 represents mean±SD as examined by T test were n=3.
The effects of CMTs 1, 2, 3, 5 and 8 on PGE2 and NO accumulation in RAW 264.7 cells were further evaluated as described above for CMT-3. […]

COX-2 [2] = experiment: Expression/modification (size) of COX-2 in LPS-stimulated murine macrophages, Western blot; type: cell-based; details: LPS 100 ng/ml
Protocol: RAW 263.7 cells were grown as previously described (Amin et al, 1995b). Murine macrophages stimulated with 100 ng/ml LPS were incubated with CMT-3 or tunicamycin (a glycosylation inhibitor). […] Nitrite and PGE2 were estimated as previously described (Amin et al, 1995b). It is quite possible that CMT-3 may inhibit COX-2 and PGE2 production by post translational modification of COX-2 which may be similar to tunicamycin inhibition. The data represents the mean±SD evaluated by T test (n=3).
Murine macrophage cells were cultivated as previously described (Amin et al, 1995b). […] cells were stimulated with 100 ng/ml of LPS in the presence of CMT-3, CMT-5 and glycosylation inhibitor, tunicamycin. The cells were grown for 16 hr and harvested. The cell free extracts were prepared as previously described (Amin et al, 1995b). In FIG. 4A, 50 μg of protein was loaded in each well and run on SDS-PAGE gels and blotted onto Western blots using a specific anti COX-2 antibody as previously described (Amin et al, 1997a). The positive control is a standard COX-2. […] The size is approximately 2000 D smaller (CMT-3 form) than the native COX-2 shown as a standard. […] These experiments indicate that CMT-3 induces modification of the COX-2 protein. The SDS PAGE analysis and Western blotting of COX-2 was carried out as described above.

TNFα = TNFα release in the medium by HEK 293 cells permanently transfected with human proTNFα (ELISA); type: cell-based; details: words
Protocol: HEK 293 cells were transfected with the proTNFα cDNA (wild) to prepare a stable cell line. […] A mutant form of proTNFα cDNA which could not be cleaved by the endogenous TNFα convertase (TACE) to release soluble TNFα was also transfected in separate human HEK 293 cells. The soluble TNFα was estimated by ELISA from the wild type and mutant transfected cells from the medium (FIG. 6).
HEK 293 cells were grown as previously described by American Type Culture Collection (ATCC). […] The HEK 293 cells were incubated with CMT-3 to examine the effects of CMT-3 on TNFα release in the medium.
HEK 293 cells were grown under the conditions previously described by ATCC. Various compounds, including CMT-3 and doxycycline/minocyclines were incubated with proTNFα transfected HEK 293 cells releasing TNFα in the medium at 16 hours. […] Soluble TNFα was estimated by ELISA from the medium.

[3] = words; cited from earlier work
iNOS mRNA = details: Amin et al, 1997b; words; cited from earlier work

NC(=O)C1=C(O)C2(O)C(=O)C3=C(O)c4c(O)cccc4CC3CC2CC1=O (stereo not shown) [CMT-3, 6-demethyl-6-deoxy-4-dedimethylaminotetracycline]
Effect on specific activity of COX-2 (COX-2 [1]; CMT-3 27 μM, CMT-8 27 μM, aspirin 56 μM, indomethacin 28 μM, words): significantly inhibited the specific activity of COX-2 | COX-2 Specific Activity (COX-2 [1]; Table 3, cell-free extracts, 10 μg (aspirin amount not given)): 2.8 ± 4.0 PGE2 ng/mg protein | Nitrite (RAW 264.7 cells; Experiment I, 16 hours): 24.7 µM | Nitrite (RAW 264.7 cells; Experiment II, 16 hours): 11.7 µM | Effect on NO production (RAW 264.7 cells; FIG. 1, 16 hours): blocks both NO and PGE2 production | Effect on NO production (RAW 264.7 cells; FIG. 2): inhibit | inhibition at 10 µg/mL (RAW 264.7 cells; Experiment I, 16 hours): 48% | inhibition at 10 µg/mL (RAW 264.7 cells; Experiment II, 16 hours): 46% | Effect on COX-2 expression (COX-2 [2]; FIG. 2, words): inhibit | Decrease in size of COX-2 versus native COX-2 (COX-2 [2]; FIG. 4A, 16 hr, Western blot): approximately 2000 D | Effect on size of COX-2 (COX-2 [2]; FIG. 4A, 16 hr, Western blot, words): decrease in the size of COX-2 | Effect on TNFα release in the medium (TNFα; FIG. 7): inhibits TNFα release in the medium in a dose dependent manner | Effect on spontaneous TNFα release (TNFα; FIG. 8, 16 hours): inhibit the spontaneous TNFα release | Inhibition of TNFα (summary statement) (TNFα; HEK 293 cells transfected with proTNFα cDNA, low levels): inhibiting TNFα | Antimicrobial activity [3]: no antimicrobial activity | Effect on iNOS mRNA expression (iNOS mRNA): inhibiting iNOS mRNA expression
